Patent US20090221538A1, “METHODS OF TREATING MULTIPLE SCLEROSIS BY ADMINISTERING PULSE DOSE CALCITRIOL” (priority 2008, published 2009)
Where “and” joins values, the source holds several entries; their conditions need not be identical. Equal entries are not always repeated. Marks after values point to notes of the source that are not given here.

Test system: B10.PL mice with acute EAE
Test: Treatment of MBP-induced acute EAE in B10.PL mice, daily clinical EAE disability score
Assay type: in vivo
Design: key to cumulative disability (sum of daily disability scores; mean) / Cumulative disability / EAE severity (initial) / Remission (minimum) / EAE severity (final) / EAE severity (decrease): EAE score 0 = normal to 5 = moribund; cumulative = sum of daily scores
Conditions: for EAE severity (initial): score at randomization
Method: Breeding pairs of B10.PL-H2^uH2-T18^a/(73NS)/SnJ (hereafter B10.PL) mice were purchased from the Jackson Laboratory (Bar Harbor, Me.). The experimental B10.PL mice were either bred in the pathogen-free mouse colony at the University of Wisconsin Department of Biochemistry, or purchased from the Jackson Laboratory. Mice were housed at 23° C. with 40-60% humidity, 12 hr light-dark cycles, and ad libidum access to water. Unless stated otherwise, the mice were fed Lab Diet #5008 (PMI Nutrition International, Inc., Brentwood, Mo.) containing 0.33 μg/d vitamin D3 and 1% calcium. Experiments used male and female mice aged 6-8 wks (age- and sex-matched within experiments). The University of Wisconsin College of Agricultural and Life Sciences Institutional Animal Care and Use Committee approved all of the experimental protocols.
Bovine myelin basic protein (Sigma Chemical Co., St. Louis, Mo.) was dissolved at 2 mg/mL in 0.1 N acetic acid and emulsified with Complete Freund's adjuvant containing heat-killed Mycobacterium tuberculosis H37 Ra solution (Difco). Each mouse was injected subcutaneously with 0.1 mL emulsion in each hind flank (400 micrograms of MBP per mouse). On the day of immunization and again 2 days later, 200 nanograms of pertussis toxin was injected into the peritoneum. Thereafter, clinical EAE signs were scored daily as follows: 0, normal; 1, limp tail; 1.5, partial paralysis of one hind limb; 2, partial paralysis of both hind limbs; 2.5 partial paralysis of one hind limb and complete paralysis of one hind limb; 3, paralysis of both hind limbs; 4, hind and fore limb paralysis; 5, moribund.
The vitamin D3 and 1,25-(OH)2D3 were obtained from Sigma Chemical Co. The vitamin D3 was dissolved in safflower oil and stored in the dark at 5° C. The 1,25-(OH)2D3 was dissolved in 100% ethanol (1 mg/mL) and stored in the dark under nitrogen gas at −20° C. The concentration of 1,25-(OH)2D3 was determined by spectral analysis. Animals with stage 2.3±0.3 were randomized into treatment groups. The details of the treatments are given in the figure legends and table footnotes. The synthetic diet used in some experiments was formulated to contain all essential nutrients except vitamin D3 and was prepared exactly as we described (Spach and Hayes, 2005, J. Immunol. 175:4119-4126). For experiments using supplementary vitamin D3, the placebo group was fed the synthetic diet ad libidum without added vitamin D3, whereas the vitamin D3-supplemented group was fed the synthetic diet ad libidum with vitamin D3 added in an amount to provide 1 μg/d, calculated based on a daily measured consumption of 4.0 g dry weight of diet per mouse. Fresh synthetic diet was provided three times per week. At several times during the study, mice were weighed and blood samples were obtained from the tail vein. At the conclusion of the study, the mice were euthanized, a blood sample was obtained, perfusion was done, and the spinal cords and optic nerves were removed. The spinal cords were flash frozen with liquid nitrogen and stored at −70° C. prior to 1,25-(OH)2D3 extraction. Alternatively, the spinal cords were divided into 6 equal sections, aligned vertically, snap frozen in O.C.T. compound (Sakura Finetek USA, Torrance, Calif.) and stored at −70° C. for histopathology. The blood was clotted, centrifuged, and the decanted serum was frozen at −70° C. prior to analysis.
Individual mice were analyzed and the mean and SD were calculated for each group of mice. Experiments were repeated at least once. The significance of differences between the group means was determined using the Mann-Whitney test (n≦16), Student's t-test (n>16), or Chi-squared test (binomial data); p<0.05 was considered significant.

[1] = female B10.PL mice, chow-fed, 20 ng pulse dose, 14 days post treatment
[2] = female B10.PL mice, chow-fed, 200 ng injected once each week, 21 days
[3] = female B10.PL mice, chow-fed, 200 ng injected once, 21 days post treatment
[4] = female B10.PL mice, chow-fed, 200 ng pulse dose, 14 days post treatment
[5] = female B10.PL mice, chow-fed, 400 ng pulse dose, 14 days post treatment
[6] = female and male B10.PL mice, chow-fed, 0.5 (female) or 1.0 (male) nmol injected once, 14 days post treatment
[7] = male B10.PL mice, chow-fed, 20 ng pulse dose, 14 days post treatment
[8] = male B10.PL mice, chow-fed, 40 ng pulse dose, 14 days post treatment
[9] = male B10.PL mice, chow-fed, 200 ng pulse dose, 14 days post treatment
[10] = male B10.PL mice, chow-fed, 400 ng pulse dose, 14 days post treatment
[11] = male and female B10.PL mice, 200 ng 1,25-(OH)2D3 injected, 5 μg vitamin D3 gavage 24 hr later, diet 1 μg/d vitamin D3
[12] = methyl-prednisolone 200 μg/d followed by one 1,25-(OH)2D3 treatment, 28-day observation period

## C=C1/C(=C\C=C2/CCC[C@]3(C)[C@@H]([C@H](C)CCCC(C)(C)O)CC[C@@H]23)C[C@@H](O)C[C@@H]1O [1,25-(OH)2D3, 1,25-dihydroxy vitamin D3]
0.5 nmol (females) or 1.0 nmol (males), compared with methyl-prednisolone
  relative potency for the treatment of acute EAE disability: far superior to methyl-prednisolone
200 ng 1,25-(OH)2D3 pulse dose plus vitamin D3 (serum 25-(OH)D3 82±27), 42 day observation period
  reduction of cumulative disability: 48%
chow-fed mice with acute EAE, weekly injections of 200 ng
  cumulative disability lower than the placebo group: 43%
[1]
  EAE severity (decrease): 0.5 ± 1.0
  EAE severity (final): 1.6 ± 1.0
  Remission (%): 75%
  Remission (days in): 8.0 ± 6.3 days
  Remission (days to): 2.0 ± 0.0 days
Female B10.PL mice, chow-fed, 20 ng pulse dose
  EAE severity (initial): 2.1 ± 0.1
Female B10.PL mice, chow-fed, 20 ng pulse dose, sum of daily scores for 14 days
  Cumulative disability: 22.1 ± 9.0
[2]
  EAE severity (peak): 2.4 ± 0.4
  Remission: 15.7 ± 3.4 days
  Remission (%): 100%
  Remission (minimum): 1.0 ± 0.0
Female B10.PL mice, chow-fed, 200 ng injected once each week
  EAE severity (initial): 2.3 ± 0.5
Female B10.PL mice, chow-fed, 200 ng injected once each week, sum of daily scores for 21 days
  Cumulative disability: 31.6 ± 5.1
[3]
  EAE severity (peak): 2.7 ± 0.4
  Remission: 13.4 ± 3.9 days
  Remission (minimum): 1.0 ± 0.4
Female B10.PL mice, chow-fed, 200 ng injected once, 21 days post treatment, remission = score ≦1.5 for two or more consecutive days
  Remission (%): 100%
Female B10.PL mice, chow-fed, 200 ng injected once
  EAE severity (initial): 2.6 ± 0.4
Female B10.PL mice, chow-fed, 200 ng injected once, sum of daily clinical scores for 21 days
  Cumulative disability: 32.9 ± 9.3
[4]
  EAE severity (decrease): 1.6 ± 0.4
  EAE severity (final): 1.0 ± 0.4
  Remission (%): 100%
  Remission (days in): 9.2 ± 2.5 days
  Remission (days to): 5.8 ± 2.5 days
Female B10.PL mice, chow-fed, 200 ng pulse dose
  EAE severity (initial): 2.6 ± 0.4
Female B10.PL mice, chow-fed, 200 ng pulse dose, sum of daily scores for 14 days
  Cumulative disability: 21.8 ± 4.6
[5]
  EAE severity (decrease): 1.2 ± 0.2
  EAE severity (final): 1.0 ± 0.0
  Remission (%): 100%
  Remission (days in): 9.6 ± 3.0 days
  Remission (days to): 6.2 ± 3.3 days
Female B10.PL mice, chow-fed, 400 ng pulse dose
  EAE severity (initial): 2.2 ± 0.2
Female B10.PL mice, chow-fed, 400 ng pulse dose, sum of daily scores for 14 days
  Cumulative disability: 20.6 ± 5.2
[6]
  Cumulative disability: 19.7 ± 4.4
  EAE severity (decrease): 1.2 ± 0.6
  Remission (%): 92%
  Remission (days in): 10.0 ± 2.2 days
  Remission (days to): 4.9 ± 2.2 days
Female and male B10.PL mice, chow-fed, 0.5 (female) or 1.0 (male) nmol of steroid compound injected once
  EAE severity (initial): 2.3 ± 0.4
Female mice, chow-fed, 20 ng pulse dose
  effectiveness for the treatment of EAE: partially effective
Female mice, chow-fed, 200 ng pulse dose
  remission lasted an average of, before a relapse occurred: 14 days
Female mice, chow-fed, 200 ng pulse dose, within 6 days
  mice that achieved a remission (EAE≦1.5 for at least two consecutive days): 100%
[7]
  EAE severity (decrease): 0.7 ± 0.4
  EAE severity (final): 1.4 ± 0.5
  Remission (%): 80%
  Remission (days in): 6.6 ± 4.6 days
  Remission (days to): 6.3 ± 2.2 days
Male B10.PL mice, chow-fed, 20 ng pulse dose
  EAE severity (initial): 2.1 ± 0.2
Male B10.PL mice, chow-fed, 20 ng pulse dose, sum of daily scores for 14 days
  Cumulative disability: 24.2 ± 6.2
[8]
  EAE severity (decrease): 0.5 ± 1.2
  EAE severity (final): 1.7 ± 1.0
  Remission (%): 80%
  Remission (days in): 8.0 ± 4.6 days
  Remission (days to): 4.5 ± 1.7 days
Male B10.PL mice, chow-fed, 40 ng pulse dose
  EAE severity (initial): 2.2 ± 0.4
Male B10.PL mice, chow-fed, 40 ng pulse dose, sum of daily scores for 14 days
  Cumulative disability: 25.0 ± 9.0
[9]
  EAE severity (decrease): 1.0 ± 0.4
  EAE severity (final): 1.3 ± 0.4
  Remission (%): 100%
  Remission (days in): 11.9 ± 2.0 days
  Remission (days to): 6.3 ± 2.4 days
Male B10.PL mice, chow-fed, 200 ng pulse dose
  EAE severity (initial): 2.3 ± 0.3
Male B10.PL mice, chow-fed, 200 ng pulse dose, sum of daily scores for 14 days
  Cumulative disability: 22.1 ± 3.5
[10]
  EAE severity (decrease): 1.2 ± 0.2
  EAE severity (final): 0.8 ± 0.3
  Remission (%): 86%
  Remission (days in): 11.0 ± 1.4 days
  Remission (days to): 4.2 ± 1.7 days
Male B10.PL mice, chow-fed, 400 ng pulse dose
  EAE severity (initial): 2.1 ± 0.4
Male B10.PL mice, chow-fed, 400 ng pulse dose, sum of daily scores for 14 days
  Cumulative disability: 16.9 ± 2.5
[11]
  Remission: 36 ± 6 days
  Remission (%): 100* %
  mortality: 0%
Male and female B10.PL mice, 200 ng 1,25-(OH)2D3 injected, 5 μg vitamin D3 gavage, diet 1 μg/d vitamin D3, sum of daily scores for first 42 days post treatment
  Cumulative disability: 50 ± 14
[12]
  Cumulative disability: 36±10
  reduction of cumulative disability vs placebo group: 42%
Mice with normal serum 25-(OH)D3 levels, 200 ng pulse dose in females and 400 ng pulse dose in males
  amelioration of EAE disease: optimally ameliorated EAE disease
One 1,25-(OH)2D3 treatment (females 200 ng; males 400 ng) after withdrawal of 200 μg/d methyl-prednisolone, 28-day observation period
  mice that did not relapse: 4 of 6
One 1,25-(OH)2D3 treatment (females 200 ng; males 400 ng) after withdrawal of methyl-prednisolone
  days in remission before relapse (remaining two mice): 14 days and 23 days
